biological target: T1, FAAH (Rattus norvegicus, UniProt P97612); assay: In vitro FAAH activity in rat brain membranes, 3H-AEA substrate, % of control; format: biochemical, Wistar rats; conditions: 100 nM test compound, low value = strong inhibitor
T1 construct: Frozen brains (without cerebellum) from Wistar rats were used; from tissue; host or cells: Wistar rat brain (without cerebellum), washed membrane pellets
T1 sequence (P97612 1-579): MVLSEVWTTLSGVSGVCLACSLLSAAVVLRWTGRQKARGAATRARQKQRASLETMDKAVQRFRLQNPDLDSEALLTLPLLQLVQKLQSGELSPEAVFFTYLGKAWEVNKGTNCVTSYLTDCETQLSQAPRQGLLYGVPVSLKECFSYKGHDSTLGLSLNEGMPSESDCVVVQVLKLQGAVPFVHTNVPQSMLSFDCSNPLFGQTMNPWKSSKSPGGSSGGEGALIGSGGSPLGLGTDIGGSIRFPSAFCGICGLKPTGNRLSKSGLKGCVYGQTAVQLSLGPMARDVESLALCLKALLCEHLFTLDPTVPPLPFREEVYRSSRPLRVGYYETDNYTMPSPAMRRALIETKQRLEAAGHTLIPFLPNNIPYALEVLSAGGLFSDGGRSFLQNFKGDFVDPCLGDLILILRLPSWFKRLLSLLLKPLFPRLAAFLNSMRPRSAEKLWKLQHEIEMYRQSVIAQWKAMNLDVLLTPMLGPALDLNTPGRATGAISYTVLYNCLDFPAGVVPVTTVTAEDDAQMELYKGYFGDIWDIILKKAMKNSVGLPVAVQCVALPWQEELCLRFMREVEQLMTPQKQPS
In short: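 Wistar rat brain membranes (5 μg protein) preincubated 15 min at 37 °C with compound at 10 μM or 0.1 μM (0.1% DMSO), then 2 μM AEA including 3H-AEA with 0.1% BSA, Tris pH 7.6, 10 min. 3H-ethanolamine counted after charcoal stop; % of no-compound control after blank subtraction.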

Compound	In Vitro FAAH activity, 100 nM
C[C@@H]1CN(C(=O)n2nnc3ccccc32)C[C@H](C)O1 [Compound 194, (1H-benzo[d][1,2,3]triazol-1-yl)((2S,6R)-2,6-dimethylmorpholino)methanone]	64.2 % of control
O=C(N1CCC(CCCc2ccccc2)CC1)n1cnc(-c2ccc(Cl)cc2)c1 [Compound 197, (4-(4-chlorophenyl)-1H-imidazol-1-yl)(4-(3-phenylpropyl)piperidin-1-yl)methanone]	0.3 % of control
O=C(N1CCC2(CC1)OCCO2)n1cnc(-c2ccc(Cl)c(Cl)c2)c1 [Compound 198, (4-(3,4-dichlorophenyl)-1H-imidazol-1-yl)(1,4-dioxa-8-azaspiro[4.5]decan-8-yl)methanone]	33 % of control
CN(C(=O)n1cnc(-c2cccc(OCCN3CCNCC3)c2)c1)c1ccccc1.Cl.Cl [Compound 200, N-methyl-N-phenyl-4-(3-(2-(piperazin-1-yl)ethoxy)phenyl)-1H-imidazole-1-carboxamide dihydrochloride]	100.1 % of control
O=C(N1CCN(C2CCCCC2)CC1)n1cnc(-c2ccc(F)c(F)c2)c1 [Compound 201, (4-cyclohexylpiperazin-1-yl)(4-(3,4-difluorophenyl)-1H-imidazol-1-yl)methanone]	0.3 % of control
CCN(CCOCc1ccccc1)C(=O)n1nnc2ccccc21 [Compound 202, N-(2-(benzyloxy)ethyl)-N-ethyl-1H-benzo[d][1,2,3]triazole-1-carboxamide]	0.1 % of control
O=C(N1CCC2(CC1)OCCO2)n1cnc(-c2ccc(Cl)cc2)n1 [Compound 204, (3-(4-chlorophenyl)-1H-1,2,4-triazol-1-yl)(1,4-dioxa-8-azaspiro[4.5]decan-8-yl)methanone]	15.8 % of control
COc1ccc(-c2ncn(C(=O)N3CCC(CCCc4ccccc4)CC3)n2)cc1 [Compound 205, (3-(4-methoxyphenyl)-1H-1,2,4-triazol-1-yl)(4-(3-phenylpropyl)piperidin-1-yl)methanone]	0.2 % of control
O=C(N1CCN(c2ccccc2)CC1)n1cnc(-c2cccc3ccccc23)n1 [Compound 206, (3-(naphthalen-1-yl)-1H-1,2,4-triazol-1-yl)(4-phenylpiperazin-1-yl)methanone]	3.3 % of control
NC(=O)c1ccc(Oc2cccc(-c3ncn(C(=O)N4CCc5ccccc5C4)n3)c2)cc1 [Compound 207, 4-(3-(1-(1,2,3,4-tetrahydroisoquinoline-2-carbonyl)-1H-1,2,4-triazol-3-yl)phenoxy)benzamide]	31.6 % of control
NC(=O)c1ccc(Oc2cccc(-c3ncn(C(=O)N4CCOCC4)n3)c2)cc1 [Compound 210, 4-(3-(1-(morpholine-4-carbonyl)-1H-1,2,4-triazol-3-yl)phenoxy)benzamide]	73.3 % of control
COc1ccc(-c2ncn(C(=O)N3CCN(c4ccc(F)cc4)CC3)n2)cc1 [Compound 211, (4-(4-fluorophenyl)piperazin-1-yl)(3-(4-methoxyphenyl)-1H-1,2,4-triazol-1-yl)methanone]	1.9 % of control
Cl.O=C(N1CCN(C2CCCCC2)CC1)n1cnc(-c2ccc(Cl)cc2)n1 [Compound 212, (3-(4-chlorophenyl)-1H-1,2,4-triazol-1-yl)(4-cyclohexylpiperazin-1-yl)methanone hydrochloride]	0.8 % of control
O=C(N1CCSC1)n1cnc(-c2ccc(Cl)cc2)n1 [Compound 214, (3-(4-chlorophenyl)-1H-1,2,4-triazol-1-yl)(thiazolidin-3-yl)methanone]	23.7 % of control
O=C(N1CCSC1)n1cnc(-c2ccc(F)c(F)c2)c1 [Compound 215, (4-(3,4-difluorophenyl)-1H-imidazol-1-yl)(thiazolidin-3-yl)methanone]	16.7 % of control
O=C(N1CCCC1)n1cnc(-c2ccc(Cl)c(Cl)c2)c1 [Compound 218, (4-(3,4-dichlorophenyl)-1H-imidazol-1-yl)(pyrrolidin-1-yl)methanone]	31.6 % of control
O=C(N1CCN(c2ccc(F)cc2)CC1)n1cnc(-c2ccc(Cl)cc2)c1 [Compound 223, (4-(4-chlorophenyl)-1H-imidazol-1-yl)(4-(4-fluorophenyl)piperazin-1-yl)methanone]	1.1 % of control
Br.CN(C(=O)n1cnc(-c2ccc(OCCN3CCCCC3)cc2)c1)c1ccccc1 [Compound 224, N-methyl-N-phenyl-4-(4-(2-(piperidin-1-yl)ethoxy)phenyl)-1H-imidazole-1-carboxamide hydrobromide]	90 % of control

Compound	In Vitro FAAH activity, 100 nM
COc1cc(-c2cn(C(=O)N3COCC3(C)C)cn2)ccc1OCc1ccccc1 [Compound 225, (4-(4-(benzyloxy)-3-methoxyphenyl)-1H-imidazol-1-yl)(4,4-dimethyloxazolidin-3-yl)methanone]	79 % of control
CC1OCCN1C(=O)n1cnc(-c2ccccc2)c1 (stereo not drawn) [Compound 227, (2-methyloxazolidin-3-yl)(4-phenyl-1H-imidazol-1-yl)methanone]	64.7 % of control
CN(C(=O)n1cnc(-c2ccccc2)c1)C12CC3CC(CC(C3)C1)C2 [Compound 229]	99.2 % of control
CN(C(=O)n1cnc(-c2ccc(OCCN3CCOCC3)cc2)c1)c1ccccc1.Cl [Compound 230, N-methyl-4-(4-(2-morpholinoethoxy)phenyl)-N-phenyl-1H-imidazole-1-carboxamide hydrochloride]	96.1 % of control
O=C(OCCN(C(=O)n1cnc(-c2ccccc2)c1)C1=CCCC1)n1cnc(-c2ccccc2)c1 [Compound 234, 2-(N-cyclopentenyl-4-phenyl-1H-imidazole-1-carboxamido)ethyl 4-phenyl-1H-imidazole-1-carboxylate]	78.2 % of control
O=C(NC12CC3CC(CC(C3)C1)C2)n1cnc(-c2ccccc2)c1 [Compound 237]	91.6 % of control
O=C(N1CCOC1c1ccccc1)n1cnc(-c2ccc(Cl)cc2)c1 (stereo not drawn) [Compound 241, (4-(4-chlorophenyl)-1H-imidazol-1-yl)(2-phenyloxazolidin-3-yl)methanone]	76.5 % of control
CN(C(=O)n1nnc2ccc(O)cc21)C1CCCCC1 [Compound 242, N-cyclohexyl-6-hydroxy-N-methyl-1H-benzo[d][1,2,3]triazole-1-carboxamide]	0 % of control
CC1(C)COCN1C(=O)n1nnc2cc(-c3cccc(C(N)=O)c3)ccc21 [Compound 243, 3-(1-(4,4-dimethyloxazolidine-3-carbonyl)-1H-benzo[d][1,2,3]triazol-5-yl)benzamide]	39.7 % of control
CN(C(=O)n1cnc(-c2ccc(Cl)cc2)c1)C1CCCC1 [Compound 244, 4-(4-chlorophenyl)-N-cyclopentyl-N-methyl-1H-imidazole-1-carboxamide]	5.4 % of control
CN(C(=O)n1cnc(-c2cccc(-c3cccc(F)c3)c2)c1)C1CCCCC1 [Compound 246, N-cyclohexyl-4-(3′-fluorobiphenyl-3-yl)-N-methyl-1H-imidazole-1-carboxamide]	2.9 % of control
CC(C)N(Cc1ccccc1)C(=O)n1cnc(-c2ccc(Cl)cc2)c1 [Compound 249, N-benzyl-4-(4-chlorophenyl)-N-isopropyl-1H-imidazole-1-carboxamide]	95.8 % of control
CC(C)(C)N(Cc1ccccc1)C(=O)n1cnc(-c2ccccc2)c1 [Compound 251, N-benzyl-N-tert-butyl-4-phenyl-1H-imidazole-1-carboxamide]	91.7 % of control
CC(C)(C)N(Cc1ccccc1)C(=O)n1cnc(-c2ccc(Cl)cc2)c1 [Compound 252, N-benzyl-N-tert-butyl-4-(4-chlorophenyl)-1H-imidazole-1-carboxamide]	83.6 % of control
O=C(N1CCS(=O)(=O)C1)n1cnc(-c2ccc(Cl)cc2)n1 [Compound 253, 3-(4-chlorophenyl)-1-[(1,1-dioxido-1,3-thiazolidin-3-yl)carbonyl]-1H-1,2,4-triazole]	107.7 % of control
COc1cccc(-c2cn(C(=O)N(Cc3ccccc3)C(C)C)cn2)c1 [Compound 255, N-benzyl-N-isopropyl-4-(3-methoxyphenyl)-1H-imidazole-1-carboxamide]	96.7 % of control
COc1cccc(-c2cn(C(=O)N(Cc3ccccc3)C(C)(C)C)cn2)c1 [Compound 256, N-benzyl-N-tert-butyl-4-(3-methoxyphenyl)-1H-imidazole-1-carboxamide]	105.6 % of control
CCOc1cccc(-c2cccc(-c3cn(C(=O)N(C)C4CCCCC4)cn3)c2)c1 [Compound 258, N-cyclohexyl-4-(3'-ethoxybiphenyl-3-yl)-N-methyl-1H-imidazole-1-carboxamide]	39.9 % of control

Reference: patent US9353082B2, “Pharmaceutical compounds” (BIAL—PORTELA & CA, S.A., priority 2008, dated 2016)
